Results reported in patent publication US20030032809A1, “Optimized procedures for the manufacture of paroxetine salts” (priority 2001, published 2003).

Columns and labels:
[1] = Solubility of paroxetine salts in water; assay type: physicochemical
[2] = prior-art statement; cited from earlier work

## (−)-trans-4R-(4′-fluorophenyl)-3S-[(3′,4′-methylenedioxyphenyl)oxymethyl]piperidine acetate [paroxetine acetate]
[1]; purified water, room temperature, purified paroxetine acetate
  solubility: at least 1000 mg per one ml
[1]; water
  solubility in water (in words): highly soluble in water
[2]
  water solubility (in words, background): excellent water solubility profile
